Patent US20250034130A1, “Crystal Form of Tolebrutinib, Preparation Method Therefor and Use Thereof” (Principia Biopharma Inc., priority 2021, published 2025)
Entries after “also recorded” stand apart in the source; their conditions may differ.

Experiments:
Assay type in all cases: physicochemical
[1] = Hygroscopicity by DVS (0% RH-95% RH-0% RH at 25° C.); settings: for Weight gain relative to that of the prior art / Weight gain at 80% RH: 80% RH; for Weight gain at 80% RH: DVS; for Weight gain at 80% RH / Hygroscopicity class: 25° C.; for Crystalline state after the DVS test: XRPD before and after DVS; for Hygroscopicity class: weight gain at 80% RH
Protocol: DVS was measured via an SMS (Surface Measurement Systems Ltd.) intrinsic DVS instrument.
Parameters for DVS method are as follows: • Temperature: 25° C. • Gas and flow rate: nitrogen, 200 mL/min • RH range: 0% RH to 95% RH • ^1H NMR were collected from a Bruker Avance II DMX 400M HZ NMR spectrometer. 1-5 mg of sample was weighed and dissolved in 0.5 mL of deuterated dimethyl sulfoxide to obtain a solution with a concentration of 2-10 mg/mL.
Certain amounts of Form CSII of the present disclosure and the prior art amorphous form were sampled for hygroscopicity tests using DVS instrument. The weight change at each relative humidity was recorded during the cycle of 0% RH-95% RH-0% RH at 25° C.
Description and definition of hygroscopicity (general notice 9103 drug hygroscopicity test guidelines in 2020 edition of Chinese Pharmacopoeia, experimental condition: 25±1° C., 80±2% RH):
Certain amounts of Form CSIII of the present disclosure and the prior art amorphous form were sampled for hygroscopicity tests using DVS instrument. The weight change at each relative humidity was recorded during the cycle of 0% RH-95% RH-0% RH at 25° C.
Certain amounts of Form CSIV of the present disclosure and the prior art amorphous form were sampled for hygroscopicity tests using DVS instrument. The weight change at each relative humidity was recorded during the cycle of 0% RH-95% RH-0% RH at 25° C.

[2] = Stability at high temperature (80° C., 2 days, purity by UPLC); settings: for Chemical purity (in words) / Purity change: 2 days; for Purity change: glass vial with cap
Protocol: (§1) The related substance in the present disclosure was detected by UPLC and the parameters are shown below.
Certain amounts of Form CSII of the present disclosure and the prior art amorphous form were weighted and stored at 80° C. for 2 days, and the purities of the solids before and after storage were determined by UPLC, the results are as shown in Table 4.
Certain amounts of Form CSIII of the present disclosure and the prior art amorphous form were weighted and stored at 80° C. for 2 days, and the purities of the solids before and after storage were determined by UPLC, the results are as shown in Table 11.
Certain amounts of Form CSIV of the present disclosure and the prior art amorphous form were stored at 80° C. for 2 days, and the purities of the solids before and after storage were determined by UPLC, the results are as shown in Table 17.

[3] = Physical and chemical stability on storage in opened packages (purity by UPLC, solid form by XRPD)
Protocol: X-ray powder diffraction patterns in the present disclosure were acquired by a Bruker X-ray powder diffractometer. The parameters of the X-ray powder diffraction method of the present disclosure are as follows: • X-Ray: Cu, Kα • Kα1 (Å): 1.54060; Kα2 (Å): 1.54439 • Kα2/Kα1 intensity ratio: 0.50
as §1
Said “room temperature” is not a specific temperature, but a temperature range of 10-30° C. Said “open packaged” is putting the sample into a glass vial, covering the vial with aluminum foil, and punching 5-10 holes on the foil.
(§2) Form CSII of the present disclosure and the prior art amorphous form were weighed and stored under 25° C./60% RH, 40° C./75% RH and 60° C./75% RH conditions, in opened packages, respectively. The purity and solid form were determined by UPLC and XRPD. The results are listed in Table 3, and the overlaid XRPD patterns of Form CSII before and after storage for stability evaluation are shown in FIG. 4.
as §2, with “CSIII” for “CSII”, “10,” for “3,”, “9.” for “4.”
as §2, with “CSIV” for “CSII”, “C./60%” for “C./60% RH, 40° C./75%”, “40°” for “60°”, “16,” for “3,”, “15.” for “4.”

[4] = Light stability (Chinese Pharmacopoeia method, purity by UPLC); settings: light not less than 1.2×10^6 lux-hr, near-UV not less than 200 W-hr/m^2; for Purity change: 1 week; for Chemical purity (in words): about 1 week
Source text: as §1
(§3) Certain amounts of Form CSII of the present disclosure and the prior art amorphous form were weighted and stored for about 1 week, in accordance with the method of the Chinese Pharmacopoeia, under the condition that the total illumination of the light source was not less than 1.2×106 lux-hr and the energy of the near-ultraviolet lamp was not less than 200 W-hr/m^2, the purities of the solids before and after storage were measured by UPLC and the results are shown in Table 5.
as §3, with “CSIII” for “CSII”, “1.2×10^6” for “1.2×106”, “12.” for “5.”
as §3, with “CSIV” for “CSII”, “1.2×10^6” for “1.2×106”, “18.” for “5.”

[5] = Stability of crystalline form in tablet formulation process (XRPD before and after); settings: tablets per Table 7 and Table 8, XRPD
Protocol: According to the formulation and process in Table 7 and Table 8, the tablets were prepared with an appropriate amount of Form CSII of the present disclosure. XRPD was tested before and after formulation.
According to the formulation and process in Table 7 and Table 8, the tablets were prepared with an appropriate amount of Form CSIII of the present disclosure. XRPD was tested before and after formulation.
According to the formulation and process in Table 7 and Table 8, the tablets were prepared with an appropriate amount of Form CSIV of the present disclosure. XRPD was tested before and after formulation.

[6] = Grinding stability (manual grinding 5 minutes in a mortar, XRPD); settings: ground manually 5 minutes in a mortar
Protocol: Form CSII was grounded manually for 5 minutes in a mortar. XRPD was tested before and after the grinding.
Form CSIII was grounded manually for 5 minutes in a mortar. XRPD was tested before and after the grinding.
Form CSIV was grounded manually for 5 minutes in a mortar. XRPD was tested before and after the grinding.

[7] = 25° C./60% RH, 6 months, open package
[8] = 40° C./75% RH, 6 months, open package
[9] = 60° C./75% RH, 1 month, open package
[10] = 25° C./60% RH, 2 months, open package
[11] = 40° C./75% RH, 2 months, open package

Weight gain relative to that of the prior art [1] | Weight gain at 80% RH [1] | Crystalline state after the DVS test [1] | Hygroscopicity class [1] | Chemical purity (in words) [2] | Purity change [2] | Chemical purity during storage ([3]; 25° C./60% RH) | Time for which the crystalline state doesn't change / form is stable ([3]; 25° C./60% RH) | Time for which the crystalline state doesn't change / form is stable ([3]; 40° C./75% RH) | Purity ([3]; Initial) | Solid form ([3]; Initial) | Purity change [4] | Chemical purity (in words) [4] | Crystalline state after grinding [6] | Compound | Crystalline state after formulation process (mixed with excipients, tableted) [5] | also measured
⅙ | 0.66% | remained unchanged | slightly hygroscopic | basically remained unchanged | +0.04% | above 99.9% | at least 6 months | at least 6 months | 99.91% | Form CSIII | +0.02% | basically remained unchanged | remains unchanged | C=CC(=O)N1CCC[C@@H](n2c(=O)n(-c3ccc(Oc4ccccc4)cc3)c3c(N)nccc32)C1 [Form CSIII, (R)-1-(1-acryloylpiperidin-3-yl)-4-amino-3-(4-phenoxyphenyl)-1H-imidazo[4,5-c] pyridin-2(3H)-one] | remained unchanged; also recorded: did not change | Time for which chemical purity remains substantially unchanged [2]: at least 2 days; Purity [3, 7]: 99.93%; Purity change [3, 7]: +0.02%; Solid form [3, 7]: Form CSIII; The number of the purities exceeding the qualification thresholds [3, 7]: 0; Chemical purity during storing ([3]; 40° C./75% RH and 60° C./75% RH): above 99.8%; Purity [3, 8]: 99.91%; Purity change [3, 8]: 0%; Solid form [3, 8]: Form CSIII; The number of the purities exceeding the qualification thresholds [3, 8]: 0; Time for which the crystalline state doesn't change ([3]; 60° C./75% RH): at least 1 month; Solid form and purity after storage ([3]; 60° C./75% RH, 1 month): remained basically unchanged; Purity [3, 9]: 99.86%; Purity change [3, 9]: −0.05%; Solid form [3, 9]: Form CSIII; The number of the purities exceeding the qualification thresholds [3, 9]: 0; The number of the purities exceeding the qualification thresholds ([3]; Initial, ICH Q3A (R2) thresholds): 0; Impurity content versus qualification threshold ([3]; throughout the stability investigation processes): did not exceed the qualification thresholds; also recorded: did not exceed the qualificated threshold; Time for which there is no change in the purity [4]: at least 1 week
1/15 | 0.24% | remained unchanged | slightly hygroscopic | basically remained unchanged | +0.03% | above 99.7% | at least 2 months | at least 2 months | 99.74% | Form CSIV | +0.06% | basically remained unchanged | remains unchanged | C=CC(=O)N1CCC[C@@H](n2c(=O)n(-c3ccc(Oc4ccccc4)cc3)c3c(N)nccc32)C1 [Form CSIV, (R)-1-(1-acryloylpiperidin-3-yl)-4-amino-3-(4-phenoxyphenyl)-1H-imidazo[4,5-c] pyridin-2(3H)-one] | remained unchanged; also recorded: did not change | Purity [3, 10]: 99.74%; Purity change [3, 10]: 0.00%; Solid form [3, 10]: Form CSIV; Purity [3, 11]: 99.75%; Purity change [3, 11]: +0.01%; Solid form [3, 11]: Form CSIV
